Laboratory results: patent US9938273B2 (Plexxikon Inc., priority 2015, dated 2018)

Assays:
[1] = tested on: MOLM-14 D835Y cells, FLT3 ITD and FLT3 D835Y; test: Cell proliferation assay (CellTiter-Glo), MOLM-14 D835Y; type: cell-based; details: Homo sapiens, 72 h, 3d-Growth, GMean
Excerpt: The FLT3 inhibitors may be assessed using the MOLM-14, Acute Myeloid Leukemia cell line that endogenously expresses FLT3 ITD or derivatives of the human FLT3 AML cell line which acquired the D835Y (activation loop) of F691L (gatekeeper) mutation after selection in escalating doses of the FLT3 Inhibitor AC220. FLT3 inhibitors may also be assessed using cells that are engineered to express mutant FLT3. For engineered cells, murine Ba/F3 cells were transfected with full-length FLT3 ITD/D835Y mutations. The parental BA/F3 cells are dependent upon Interleukin-3 (IL-3) for survival, and introduction of the FLT3 constructs rendered these cells dependent upon FLT3 kinase activity when cultured in the absences of IL-3. Engineered BA/F3 cell growth assays can be performed in either the […] of IL-3, to assess the compound inhibition of FLT3 or to detect the presence of off-target activity, respectively. Inhibitors of FLT3 kinase activity reduce or eliminate the FLT3 oncogenic signaling, resulting in reduced cell proliferation. This inhibition is measured as a function of compound concentration to asses IC50 values.
Cell lines used in proliferation assays are as follows in Table 3:
Cells were seeded at 1×10^4 cells per well of a 96 well cell culture plate in 50 μl of cell culture medium. Compounds were dissolved in DMSO, typically at a concentration of 0.5 mM and were serially diluted 1:3 for a total of eight points and added to the cells to final concentrations of […], 0.0041, 0.0014 and 0.00046 μM in 100 μl cell culture medium (final concentration 0.2% DMSO). […] The cells were incubated at 37° C., 5% CO2 for three days. CellTiter-Glo Buffer (Promega Cell Viability Assay catalog #G7573) and substrate were equilibrated to room temperature, and enzyme/substrate Recombinant Firefly Luciferase/Beetle Luciferin was reconstituted. The cell plates were equilibrated to room temperature for 30 minutes, then lysed by addition of an equivalent volume of the Celltiter-Glo Reagent. The plate was mixed for 10 minutes on a plate shaker to lyse the cells. The plates were read on a Tecan M1000 using Luminescence protocol modified to read 0.1 s per well. The luminescence reading assesses the ATP content, which correlates directly with cell number such that the reading as a function of compound concentration was used to determine the IC50 value.

FLT3-ITD = target: T1, FLT3-ITD (Homo sapiens, UniProt P36888); test: AlphaScreen kinase assay with recombinant enzyme, FLT3-ITD; type: biochemical; details: 8pt; read-out: FLT3_ITD 8pt: IC50
T1 sequence (P36888 1-993): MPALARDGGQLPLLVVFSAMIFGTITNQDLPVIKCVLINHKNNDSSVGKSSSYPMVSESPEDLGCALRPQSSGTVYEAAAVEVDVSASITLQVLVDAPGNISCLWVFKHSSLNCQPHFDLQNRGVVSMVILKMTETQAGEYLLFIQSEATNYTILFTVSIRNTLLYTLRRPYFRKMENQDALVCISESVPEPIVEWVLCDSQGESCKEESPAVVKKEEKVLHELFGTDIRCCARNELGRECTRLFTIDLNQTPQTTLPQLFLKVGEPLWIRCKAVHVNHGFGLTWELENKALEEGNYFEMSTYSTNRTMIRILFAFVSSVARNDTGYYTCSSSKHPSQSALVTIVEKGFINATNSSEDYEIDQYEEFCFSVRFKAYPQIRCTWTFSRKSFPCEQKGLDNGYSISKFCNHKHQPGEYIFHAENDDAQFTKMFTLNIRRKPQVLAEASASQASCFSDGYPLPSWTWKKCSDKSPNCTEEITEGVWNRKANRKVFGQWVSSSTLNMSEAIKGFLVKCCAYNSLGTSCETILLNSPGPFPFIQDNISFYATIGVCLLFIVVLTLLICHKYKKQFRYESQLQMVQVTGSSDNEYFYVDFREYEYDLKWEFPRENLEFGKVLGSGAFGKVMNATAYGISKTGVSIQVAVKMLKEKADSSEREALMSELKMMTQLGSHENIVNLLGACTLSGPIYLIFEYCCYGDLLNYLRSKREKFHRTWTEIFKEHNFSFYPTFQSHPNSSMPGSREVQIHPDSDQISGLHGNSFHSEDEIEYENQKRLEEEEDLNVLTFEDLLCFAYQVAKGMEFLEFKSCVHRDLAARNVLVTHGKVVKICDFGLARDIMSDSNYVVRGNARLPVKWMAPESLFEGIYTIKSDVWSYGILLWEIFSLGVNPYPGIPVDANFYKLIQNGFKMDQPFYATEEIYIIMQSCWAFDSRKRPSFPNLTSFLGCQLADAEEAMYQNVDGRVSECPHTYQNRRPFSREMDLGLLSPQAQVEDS
Method: In order to determine the effect of compounds on FLT3 catalytic activity, kinase assays using recombinant enzymes and AlphaScreen® technology have been established. The catalytic activity of c-kit activity was also measured to determine selectivity of the compounds. When the kinases are catalytically active, they phosphorylate a biotinylated peptide substrate on tyrosine residues. Using AlphaScreen® technology, the ability of the compounds to affect the catalytic activity of the kinases can be measured quantitatively. The peptide substrate is immobilized by the AlphaScreen® Streptavidin Donor beads and, upon phosphorylation by a tyrosine kinase, can bind to AlphaScreen® Anti-Phosphotyrosine (PY20) Acceptor beads. Upon excitation of these beads with laser light at 680 nm, singlet oxygen is produced. This singlet oxygen is rapidly quenched, unless the AlphaScreen® Anti-Phosphotyrosine (PY20) Acceptor beads are in close proximity, in which case a proximity signal can be measured at 580 nm. In the presence of catalytic activity, there is a very strong proximity signal. Selective kinase inhibitors affect a decrease in this proximity signal through a decrease in tyrosine phosphorylation of the peptide substrate.
The assay was performed as summarized below.
Poly (Glu4-Tyr) Peptide, biotin conjugate [Biotin-GG(EEEEY)10EE] (SEQ ID NO: 4)
Final concentration=30 nM
Final concentration for IC50 determination=10 μM (FLT3-D835Y or FLT3-ITD) or 100 μM (c-KIT)
AlphaScreen® Phosphotyrosine (PY20) Assay Kit
Final concentration=10 μg/mL
Dilute compounds in DMSO to 20× final concentration.
Add 1 μl of compound to each well of 384 well reaction plate (Perkin Elmer #6005359).
Mix enzyme and Poly (Glu4-Tyr) Peptide substrate at 1.33× final concentration in assay buffer.
Mix ATP at 5× final concentration in assay buffer.
Add 15 μL enzyme/substrate mixture to the reaction plate.
Add 4 μL of ATP to the reaction plate.
Mix Streptavidin Donor beads at 6× final concentration in Stop/Detection buffer.
Add 5 μL Streptavidin Donor beads to the reaction plate. Centrifuge 1 minute, shake to mix, and incubate at room temperature for 20 minutes.
Mix Anti-Phosphotyrosine (PY20) Acceptor beads at 6× final concentration in Stop/Detection buffer.
Add 5 μL Anti-Phosphotyrosine (PY20) beads to the reaction plate.
Centrifuge 1 minute, shake to mix, and incubate at room temperature for 60 minutes.
Read plate on Wallac EnVision™ 2103 Multilabel Reader.

| IC50 [1] | IC50 (FLT3-ITD) | SMILES |
| --- | --- | --- |
| 0.0001 to 10 µM | 0.0001 to 10 µM | O=C(c1cccc(-c2cnc3[nH]c(-c4ccccc4)cc3c2)n1)N1CCC(F)(F)C1 [Compound P-0093, (3,3-difluoropyrrolidin-1-yl)-[6-(2-phenyl-1H-pyrrolo[2,3-b]pyridin-5-yl)-2-pyridyl]methanone] |
| 0.0001 to 10 µM | 0.0001 to 10 µM | COC1CCN(C(=O)c2cccc(-c3cnc4[nH]c(-c5ccccc5)cc4c3)n2)C1 (stereo not drawn) [Compound P-0095, (3-methoxypyrrolidin-1-yl)-[6-(2-phenyl-1H-pyrrolo[2,3-b]pyridin-5-yl)-2-pyridyl]methanone] |
| 0.0001 to 10 µM | 0.0001 to 10 µM | CNC(=O)C1CCN(C(=O)c2cccc(-c3cnc4[nH]c(-c5ccccc5)cc4c3)n2)C1 (stereo not drawn) [Compound P-0096, N-methyl-1-[6-(2-phenyl-1H-pyrrolo[2,3-b]pyridin-5-yl)pyridine-2-carbonyl]pyrrolidine-3-carboxamide] |
| 0.0001 to 10 µM | 0.0001 to 10 µM | O=C(c1cccc(-c2cnc3[nH]c(-c4ccccc4)cc3c2)n1)N1CCC(n2ccnc2)C1 (stereo not drawn) [Compound P-0097, (3-imidazol-1-ylpyrrolidin-1-yl)-[6-(2-phenyl-1H-pyrrolo[2,3-b]pyridin-5-yl)-2-pyridyl]methanone] |
| 0.0001 to 10 µM | 0.0001 to 10 µM | N#CCCNC(=O)c1cccc(-c2cnc3[nH]c(-c4ccccc4)cc3c2)n1 [Compound P-0099, N-(2-cyanoethyl)-6-(2-phenyl-1H-pyrrolo[2,3-b]pyridin-5-yl)pyridine-2-carboxamide] |
| 0.0001 to 10 µM | 0.0001 to 10 µM | CC(C)(C#N)CNC(=O)c1cccc(-c2cnc3[nH]c(-c4ccccc4)cc3c2)n1 [Compound P-0100, N-(2-cyano-2-methyl-propyl)-6-(2-phenyl-1H-pyrrolo[2,3-b]pyridin-5-yl)pyridine-2-carboxamide] |
| 0.0001 to 10 µM | 0.0001 to 10 µM | N#CC1CCN(C(=O)c2cccc(-c3cnc4[nH]c(-c5ccccc5)cc4c3)n2)C1 (stereo not drawn) [Compound P-0105, 1-[6-(2-phenyl-1H-pyrrolo[2,3-b]pyridin-5-yl)pyridine-2-carbonyl]pyrrolidine-3-carbonitrile] |
| 0.0001 to 10 µM | 0.0001 to 10 µM | CN[C@@H]1CCN(C(=O)c2ccc(-c3cnc4[nH]c(-c5ccccc5)cc4c3)s2)C1 [Compound P-0106, [(3R)-3-(methylamino)pyrrolidin-1-yl]-[5-(2-phenyl-1H-pyrrolo[2,3-b]pyridin-5-yl)-2-thienyl]methanone] |
| 0.0001 to 10 µM | 0.0001 to 10 µM | CS(=O)(=O)N1CCC(NS(=O)(=O)c2cccc(-c3cnc4[nH]c(-c5ccccc5)cc4c3)n2)C1 (stereo not drawn) [Compound P-0107, N-(1-methylsulfonylpyrrolidin-3-yl)-6-(2-phenyl-1H-pyrrolo[2,3-b]pyridin-5-yl)pyridine-2-sulfonamide] |
| 0.0001 to 10 µM | 0.0001 to 10 µM | O=S(=O)(NC1CC1)c1cccc(-c2cnc3[nH]c(-c4ccccc4)cc3c2)n1 [Compound P-0109, N-cyclopropyl-6-(2-phenyl-1H-pyrrolo[2,3-b]pyridin-5-yl)pyridine-2-sulfonamide] |
| 0.0001 to 10 µM | 0.0001 to 10 µM | N#CC1(NC(=O)c2cccc(-c3cnc4[nH]c(-c5ccccc5)cc4c3)n2)CC1 [Compound P-0111, N-(1-cyanocyclopropyl)-6-(2-phenyl-1H-pyrrolo[2.3-b]pyridin-5-yl]pyridine-2-carboxamide] |
| 0.0001 to 10 µM | 0.0001 to 10 µM | O=C(c1cccc(-c2cnc3[nH]c(-c4cnn(CC(F)(F)F)c4)cc3c2)n1)N1CCC(F)(F)C1 [Compound P-0112, (3,3-difluoropyrrolidin-1-yl)-[6-[2-[1-(2,2,2-trifluoroethyl)pyrazol-4-yl]-1H-pyrrolo[2,3-b]pyridin-5-yl]-2-pyridyl]methanone] |
| 0.0001 to 10 µM | 0.0001 to 10 µM | CC(C)(C#N)CNC(=O)c1cccc(-c2cnc3[nH]c(-c4cnn(CC(F)(F)F)c4)cc3c2)n1 [Compound P-0113, N-(2-cyano-2-methyl-propyl)-6-[2-[1-(2,2,2-trifluoroethyl)pyrazol-4-yl]-1H-pyrrolo[2,3-b]pyridin-5-yl]pyridine-2-carboxamide] |
| 0.0001 to 10 µM | 0.0001 to 10 µM | N#CC1(NC(=O)c2cccc(-c3cnc4[nH]c(-c5ccccc5)cc4c3)n2)CCC1 [Compound P-0114, N-(1-cyanocyclobutyl)-6-(2-phenyl-1H-pyrrolo[2,3-b]pyridin-5-yl)pyridine-2-carboxamide] |
| 0.0001 to 10 µM | 0.0001 to 10 µM | N#CC1(F)CCN(C(=O)c2cccc(-c3cnc4[nH]c(-c5ccccc5)cc4c3)n2)C1 (stereo not drawn) [Compound P-0115, 3-fluoro-1-[6-(2-phenyl-1H-pyrrolo[2,3-b]pyridin-5-yl)pyridine-2-carbonyl]pyrrolidine-3-carbonitrile] |
| 0.0001 to 10 µM | 0.0001 to 10 µM | N#C[C@H]1CCN(C(=O)c2cccc(-c3cnc4[nH]c(-c5ccccc5)cc4c3)n2)C1 [Compound P-0117, (3S)-1-[6-(2-phenyl-1H-pyrrolo[2,3-b]pyridin-5-yl)pyridine-2-carbonyl]pyrrolidine-3-carbonitrile] |
| 0.0001 to 10 µM |  | N#CC1CCN(S(=O)(=O)c2cccc(-c3cnc4[nH]c(-c5ccccc5)cc4c3)n2)C1 (stereo not drawn) [Compound P-0121, 1-[[6-(2-phenyl-1H-pyrrolo[2,3-b]pyridin-5-yl)-2-pyridyl]sulfonyl]pyrrolidine-3-carbonitrile] |
